Blank lines part the entries; values can stand above or below the molecule they belong to.
What was measured:
[1] = target: T1, dSARM1^ARM (Drosophila SARM1 ARM domain) (Drosophila melanogaster, UniProt Q6IDD9); assay: ITC; assay type: binding
T1 sequence (Q6IDD9 307-678): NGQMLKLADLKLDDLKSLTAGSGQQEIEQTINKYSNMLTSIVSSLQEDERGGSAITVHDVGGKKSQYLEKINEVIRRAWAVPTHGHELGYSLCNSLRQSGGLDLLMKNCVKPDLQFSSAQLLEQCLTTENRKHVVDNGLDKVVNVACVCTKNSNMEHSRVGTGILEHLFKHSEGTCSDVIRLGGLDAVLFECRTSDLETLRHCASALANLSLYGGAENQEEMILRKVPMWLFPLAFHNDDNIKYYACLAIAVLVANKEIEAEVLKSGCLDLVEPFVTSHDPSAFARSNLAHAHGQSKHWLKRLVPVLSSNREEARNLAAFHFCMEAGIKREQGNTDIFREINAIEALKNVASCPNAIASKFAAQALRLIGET

[2] = target: dSARM1^ARM (Drosophila SARM1 ARM domain) (Drosophila melanogaster, UniProt Q6IDD9, R437A); assay: ITC; assay type: binding
cryo-EM structure = target: the molecule itself; assay: cryo-EM structure

Sequence of dSARM1^ARM (Drosophila SARM1 ARM domain) (Drosophila melanogaster, UniProt Q6IDD9, R437A) (Q6IDD9 307-678 R437A): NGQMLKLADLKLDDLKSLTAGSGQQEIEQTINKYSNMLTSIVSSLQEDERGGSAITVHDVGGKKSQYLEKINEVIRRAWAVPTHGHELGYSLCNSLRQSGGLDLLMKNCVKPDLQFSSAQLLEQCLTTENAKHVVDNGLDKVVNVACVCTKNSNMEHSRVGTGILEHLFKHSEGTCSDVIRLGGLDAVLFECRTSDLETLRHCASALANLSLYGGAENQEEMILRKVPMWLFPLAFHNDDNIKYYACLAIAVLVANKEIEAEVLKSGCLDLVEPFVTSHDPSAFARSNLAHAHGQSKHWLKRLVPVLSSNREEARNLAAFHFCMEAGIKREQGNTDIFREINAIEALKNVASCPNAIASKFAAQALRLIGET

Kd [1]: 54.2 ± 6.4 µM
Molecule: NC(=O)c1ccc[n+]([C@@H]2O[C@H](COP(=O)([O-])OP(=O)(O)OC[C@H]3O[C@@H](n4cnc5c(N)ncnc54)[C@H](O)[C@@H]3O)[C@@H](O)[C@H]2O)c1 [NAD^+]

Molecule: NC(=O)c1ccc[n+]([C@@H]2O[C@H](COP(=O)([O-])O)[C@@H](O)[C@H]2O)c1 [NMN]
Kd [2]: 12.45 ± 0.03 µM

B1: human SARM1 lacking the mitochondrial localisation signal (residues 28-724) (enzyme, UniProt Q6SZW1-1 28-724, looked up)
chain: LAVPGPDGGGGTGPWWAAGGRGPREVSPGAGTEVQDALERALPELQQALSALKQAGGARAVGAGLAEVFQLVEEAWLLPAVGREVAQGLCDAIRLDGGLDLLLRLLQAPELETRVQAARLLEQILVAENRDRVARIGLGVILNLAKEREPVELARSVAGILEHMFKHSEETCQRLVAAGGLDAVLYWCRRTDPALLRHCALALGNCALHGGQAVQRRMVEKRAAEWLFPLAFSKEDELLRLHACLAVAVLATNKEVEREVERSGTLALVEPLVASLDPGRFARCLVDASDTSQGRGPDDLQRLVPLLDSNRLEAQCIGAFYLCAEAAIKSLQGKTKVFSDIGAIQSLKRLVSYSTNGTKSALAKRALRLLGEEVPRPILPSVPSWKEAEVQTWLQQIGFSKYCESFREQQVDGDLLLRLTEEELQTDLGMKSGITRKRFFRELTELKTFANYSTCDRSNLADWLGSLDPRFRQYTYGLVSCGLDRSLLHRVSEQQLLEDCGIHLGVHRARILTAAREMLHSPLPCTGGKPSGDTPDVFISYRRNSGSQLASLLKVHLQLHGFSVFIDVEKLEAGKFEDKLIQSVMGARNFVLVLSPGALDKCMQDHDCKDWVHKEIVTALSCGKNIVPIIDGFEWPEPQVLPEDMQAVLTFNGIKWSHEYQEATIEKIIRFLQGRSSRDSSAGSDTSLEGAAPMGPT
stoichiometry N (cryo-EM structure): 8
